Source: US9951041B2, “Crystalline C21H22Cl2N4O2 malonate” (BIOMED VALLEY DISCOVERIES, INC., priority 2015, dated 2018)
Converted amounts (≈) assume the structure as drawn.

Assays:
[1] = Aqueous dissolution/solubility in fasting state simulated gastric fluid (FaSSGF) pH 1.6; details: for Conc (solubility): pH 1.6 FaSSGF buffer, ambient temperature, shaken
From the text: Samples of 4-(5-Chloro-2-isopropylaminopyridin-4-yl)-1H-pyrrole-2-carboxylic acid [1-(3-chlorophenyl)-2-hydroxyethyl]amide Form C and 4-(5-Chloro-2-isopropylaminopyridin-4-yl)-1H-pyrrole-2-carboxylic acid [1-(3-chlorophenyl)-2-hydroxyethyl]amide malonate Form A were each shaken at ambient temperature in fasting state simulated gastric fluid (FaSSGF) pH 1.6 for 30. Concentration of 4-(5-Chloro-2-isopropylaminopyridin-4-yl)-1H-pyrrole-2-carboxylic acid [1-(3-chlorophenyl)-2-hydroxyethyl]amide was measured at 5, 15 and 30 minutes.

[2] = Aqueous dissolution/solubility in fasting state simulated intestinal fluid (FaSSIF) pH 6.5 after 30 min in FaSSGF; assay type: physicochemical; details: pH 6.5 FaSSIF buffer, after 30 min FaSSGF
Procedure: After 30 minutes, the samples were removed from FaSSGF, placed in fasting state simulated intestinal fluid (FaSSIF) pH 6.5, with shaking, for an additional 5 hours.

[3] = Pharmacokinetic evaluation in male beagles, two-way cross-over, oral gavage; assay type: in vivo
From the text: […]. […] […]

[4] = pH 1.6, fassgf or other biorelevant, thermodynamic from solid

Row | Compound | Conc (solubility) ([1]; 15 min) [µg/mL] | Conc (solubility) ([1]; 30 min) [µg/mL] | Conc (solubility) ([2]; 30 min) [µg/mL] | Conc (solubility) ([2]; 120 min) [µg/mL] | Conc (solubility) ([2]; 270 min) [µg/mL] | Conc (solubility) ([2]; 300 min) [µg/mL] | coefficient of variation (CV) of average area under the curve (AUC) ([3]; male beagles, single dose 5 mg/kg by oral gavage, plasma 0-24 hours) [%] | solubility at 5 min [1, 4] [µg/mL] | solubility at 15 min [1, 4] [µg/mL] | solubility at 30 min [1, 4] [µg/mL] | solubility at 10 min ([2]; fasting state simulated intestinal fluid (FaSSIF), thermodynamic from solid, 10 min, read-out: Conc (solubility)) [µg/mL] | solubility at 30 min ([2]; fasting state simulated intestinal fluid (FaSSIF), thermodynamic from solid, 30 min, read-out: Conc (solubility)) [µg/mL] | solubility at 60 min ([2]; fasting state simulated intestinal fluid (FaSSIF), thermodynamic from solid, 60 min, read-out: Conc (solubility)) [µg/mL] | solubility at 90 min ([2]; fasting state simulated intestinal fluid (FaSSIF), thermodynamic from solid, 90 min, read-out: Conc (solubility)) [µg/mL] | solubility at 120 min ([2]; fasting state simulated intestinal fluid (FaSSIF), thermodynamic from solid, 120 min, read-out: Conc (solubility)) [µg/mL] | solubility at 180 min ([2]; fasting state simulated intestinal fluid (FaSSIF), thermodynamic from solid, 180 min, read-out: Conc (solubility)) [µg/mL] | solubility at 270 min ([2]; fasting state simulated intestinal fluid (FaSSIF), thermodynamic from solid, 270 min, read-out: Conc (solubility)) [µg/mL] | solubility at 300 min ([2]; fasting state simulated intestinal fluid (FaSSIF), thermodynamic from solid, 300 min, read-out: Conc (solubility)) [µg/mL] | coefficient of variation (CV) of average area under the curve (AUC) ([3]; male, beagle, dog, in vivo, po, 5 mg/kg) [%]
1 | CC(C)Nc1cc(-c2c[nH]c(C(=O)NC(CO)c3cccc(Cl)c3)c2)c(Cl)cn1 (stereo not shown) [Form C, 4-(5-Chloro-2-isopropylaminopyridin-4-yl)-1H-pyrrole-2-carboxylic acid [1-(3-chlorophenyl)-2-hydroxyethyl]amide Form C] | 101.35 | 136.97 | 169.89 | 332.68 | 128.38 | 154.70 | 39 | – | – | – | – | – | – | – | – | – | – | – | –
2 | CC(C)Nc1cc(-c2c[nH]c(C(=O)N[C@H](CO)c3cccc(Cl)c3)c2)c(Cl)cn1 [Malonate Form A, 4-(5-Chloro-2-isopropylaminopyridin-4-yl)-1H-pyrrole-2-carboxylic acid [1-(3-chlorophenyl)-2-hydroxyethyl]amide malonate Form A] | – | – | – | – | – | – | – | 381 (≈ 878 µM) | 385 (≈ 889 µM) | 369 (≈ 851 µM) | 63.3 (≈ 146 µM) | 110 (≈ 254 µM) | 114 (≈ 263 µM) | 115 (≈ 266 µM) | 110 (≈ 254 µM) | 110 (≈ 255 µM) | 116 (≈ 267 µM) | 115 (≈ 266 µM) | 50
